Data on 9 compounds can be found in patent US20180000085A1, “USE OF PICOLINAMIDE COMPOUNDS WITH FUNGICIDAL ACTIVITY” (DOW AGROSCIENCES LLC, priority 2014, published 2018).

Assay [1] deals with Puccinia triticina. Briefly: Wheat brown rust (PUCCRT) disease control on wheat seedlings. It counts as in vivo. More on the design: key to PUCCRT 3DC, HV activity at 100 ppm (% control rating) / PUCCRT disease control, 3DC / PUCCRT 1DP disease control rating, HV activity / PUCCRT 3DC disease control rating, HV activity / PUCCRT 3DC, LV activity at 125.1 g/H (% Control rating) / PUCCRT 1DP, LV activity at 125.1 g/H (% Control rating) / PUCCRT 3DC disease control rating, LV activity at 125.1 g/H / PUCCRT 1DP disease control rating, LV activity at 125.1 g/H / PUCCRT 3DC disease control rating, HV activity at 100 ppm / PUCCRT 1DP disease control rating, HV activity at 100 ppm / HV activity at 100 ppm PUCCRT 3DC (disease control rating) / LV activity at 125.1 g/H PUCCRT 1DP (disease control rating) / LV activity at 125.1 g/H PUCCRT 3DC (disease control rating): A: > 80; B: ≤ 80; C: Not Tested; D: No Activity Observed in the Reported Assay. The note with it: for LV activity at 125.1 g/H PUCCRT 1DP (disease control rating) / PUCCRT 1DP disease control rating, HV activity / PUCCRT 1DP, LV activity at 125.1 g/H (% Control rating): 1 Day Protectant; for LV activity at 125.1 g/H PUCCRT 1DP (disease control rating) / LV activity at 125.1 g/H PUCCRT 3DC (disease control rating) / PUCCRT 1DP disease control rating, HV activity / PUCCRT 3DC disease control rating, HV activity: wheat brown rust; for LV activity at 125.1 g/H PUCCRT 3DC (disease control rating) / PUCCRT 3DC disease control rating, HV activity / PUCCRT 3DC, LV activity at 125.1 g/H (% Control rating): 3 Day Curative; for PUCCRT 1DP disease control rating, HV activity / PUCCRT 3DC disease control rating, HV activity: HV application at 100 ppm.

For assay [2], the system named is Zymoseptoria tritici. Briefly: Leaf blotch of wheat (SEPTTR) disease control on wheat seedlings. In kind it is in vivo. More on the design: key to SEPTTR 1DP, HV activity at 100 ppm (% control rating) / SEPTTR 3DC, HV activity at 100 ppm (% control rating) / SEPTTR disease control, 1DP / SEPTTR disease control, 3DC / SEPTTR 1DP disease control rating, HV activity / SEPTTR 3DC disease control rating, HV activity / SEPTTR 3DC, LV activity at 125.1 g/H (% Control rating) / SEPTTR 1DP, LV activity at 125.1 g/H (% Control rating) / SEPTTR 1DP disease control rating, LV activity at 125.1 g/H / SEPTTR 3DC disease control rating, LV activity at 125.1 g/H / SEPTTR 3DC disease control rating, HV activity at 100 ppm / SEPTTR 1DP disease control rating, HV activity at 100 ppm / HV activity at 100 ppm SEPTTR 3DC (disease control rating) / HV activity at 100 ppm SEPTTR 1DP (disease control rating) / LV activity at 125.1 g/H SEPTTR 1DP (disease control rating) / LV activity at 125.1 g/H SEPTTR 3DC (disease control rating): A: > 80; B: ≤ 80; C: Not Tested; D: No Activity Observed in the Reported Assay. The note with it: for LV activity at 125.1 g/H SEPTTR 1DP (disease control rating) / SEPTTR 1DP disease control rating, HV activity / SEPTTR 1DP, LV activity at 125.1 g/H (% Control rating): 1 Day Protectant; for LV activity at 125.1 g/H SEPTTR 1DP (disease control rating) / LV activity at 125.1 g/H SEPTTR 3DC (disease control rating) / SEPTTR 1DP disease control rating, HV activity / SEPTTR 3DC disease control rating, HV activity: wheat leaf blotch; for LV activity at 125.1 g/H SEPTTR 3DC (disease control rating) / SEPTTR 3DC disease control rating, HV activity / SEPTTR 3DC, LV activity at 125.1 g/H (% Control rating): 3 Day Curative; for SEPTTR 1DP disease control rating, HV activity / SEPTTR 3DC disease control rating, HV activity: HV application at 100 ppm.

[3] abbreviates: low volume application, 125.1 g/H.
[4] abbreviates: high volume application, 100 ppm, 1 day protectant.
Setting [5] is: high volume application, 100 ppm, 3 day curative.
[6] abbreviates: low volume application, 125.1 g/H, 1 day protectant.
Setting [7] is: low volume application, 125.1 g/H, 3 day curative.

Take `C=CC[C@@H](OCC1CC1)[C@H](C)OC(=O)[C@H](C)NC(=O)c1nccc(OC)c1OC(C)=O` [Cmpd 1085]: in assay [1] (setting [3]), the “LV activity at 125.1 g/H PUCCRT 1DP (disease control rating)” value was “D” and the “LV activity at 125.1 g/H PUCCRT 3DC (disease control rating)” value is recorded as “B (≤ 80)”. Besides, in assay [2] (setting [3]), the “LV activity at 125.1 g/H SEPTTR 1DP (disease control rating)” value is reported as “D” and the “LV activity at 125.1 g/H SEPTTR 3DC (disease control rating)” value was “D”.
Consider `CCCOC(CC)C(Oc1ccccc1)C(C)OC(=O)C(NC(=O)c1nccc(OC)c1OCOC(C)=O)C(C)C` (stereo not drawn) [Cmpd 447], for which, in assay [1], the “PUCCRT 1DP disease control rating, HV activity” value is on record as “A (> 80)” and the “PUCCRT 3DC disease control rating, HV activity” value is “A (> 80)”. In addition, in assay [2], the “SEPTTR 1DP disease control rating, HV activity” value is on record as “A (> 80)” and the “SEPTTR 3DC disease control rating, HV activity” value is listed as “B (≤ 80)”.
As to `CCC(CC)[C@@H](Oc1cc(F)ccc1F)[C@H](C)OC(=O)[C@@H](NC(=O)c1nccc(OC)c1O)C(C)C` [Cmpd 409], in assay [1], the “PUCCRT 1DP disease control rating, HV activity” value is “B (≤ 80)” and the “PUCCRT 3DC disease control rating, HV activity” value is “B (≤ 80)”. For the same compound, in assay [2], the “SEPTTR 1DP disease control rating, HV activity” value is listed as “D” and the “SEPTTR 3DC disease control rating, HV activity” value was “D”.
In the case of `COc1ccnc(C(=O)N[C@@H](C)C(=O)O[C@@H](C)[C@H](Oc2cccc(-c3ccccc3)c2)C(C)C)c1OCOC(C)=O` [Cmpd 613], in assay [1] (setting [3]), the “PUCCRT 1DP, LV activity at 125.1 g/H (% Control rating)” value is given as “A (> 80)” and the “PUCCRT 3DC, LV activity at 125.1 g/H (% Control rating)” value was “A (> 80)”. Further, in assay [2] (setting [3]), the “SEPTTR 1DP, LV activity at 125.1 g/H (% Control rating)” value is listed as “B (≤ 80)” and the “SEPTTR 3DC, LV activity at 125.1 g/H (% Control rating)” value was “B (≤ 80)”.
Turning to `CCCOC(CC)C(Oc1ccccc1)C(C)OC(=O)C(NC(=O)c1nccc(OC)c1OCOC(C)=O)C(C)CC` (stereo not drawn) [Cmpd 449], in assay [1], the “PUCCRT 1DP disease control rating, HV activity” value is reported as “A (> 80)” and the “PUCCRT 3DC disease control rating, HV activity” value is reported as “A (> 80)”. Also, in assay [2], the “SEPTTR 1DP disease control rating, HV activity” value is “A (> 80)” and the “SEPTTR 3DC disease control rating, HV activity” value is reported as “B (≤ 80)”.
For `COc1ccnc(C(=O)N[C@@H](C)C(=O)O[C@@H](C)[C@H](Oc2ccc(C)cc2)C2CCCC2)c1O` [Cmpd 846, (S)-(1R,2S)-1-cyclopentyl-1-(p-tolyloxy)propan-2-yl-2-(3-hydroxy-4-methoxypicolinamido)propanoate], in assay [1] (setting [4]), the “PUCCRT 1DP disease control rating, HV activity at 100 ppm” value is listed as “A (> 80)”. For the same compound, in assay [1] (setting [5]), the “PUCCRT 3DC disease control rating, HV activity at 100 ppm” value was “A (> 80)”. Also, the “SEPTTR 1DP disease control rating, HV activity at 100 ppm” value in assay [2] (setting [4]) is given as “B (≤ 80)”. The “SEPTTR 3DC disease control rating, HV activity at 100 ppm” value in assay [2] (setting [5]) is “B (≤ 80)”.
With `COc1ccnc(C(=O)N[C@@H](CC(C)C)C(=O)O[C@@H](C)[C@H](Oc2ccc(Cl)cc2Cl)C(C)C)c1OCOC(C)=O` [Cmpd 565], in assay [1] (setting [3]), the “PUCCRT 1DP, LV activity at 125.1 g/H (% Control rating)” value is recorded as “B (≤ 80)” and the “PUCCRT 3DC, LV activity at 125.1 g/H (% Control rating)” value is “B (≤ 80)”. In assay [2] (setting [3]), the “SEPTTR 1DP, LV activity at 125.1 g/H (% Control rating)” value was “D” and the “SEPTTR 3DC, LV activity at 125.1 g/H (% Control rating)” value is reported as “B (≤ 80)”.
On to `CCC[C@@H](Oc1ccc(C)cc1Cl)[C@H](C)OC(=O)[C@H](C)NC(=O)c1nccc(OC)c1OC(C)=O` [Cmpd 1068], for which, in assay [1] (setting [3]), the “LV activity at 125.1 g/H PUCCRT 1DP (disease control rating)” value was “A (> 80)” and the “LV activity at 125.1 g/H PUCCRT 3DC (disease control rating)” value is listed as “B (≤ 80)”. Also, in assay [2] (setting [3]), the “LV activity at 125.1 g/H SEPTTR 1DP (disease control rating)” value was “B (≤ 80)” and the “LV activity at 125.1 g/H SEPTTR 3DC (disease control rating)” value is given as “B (≤ 80)”.
For `COc1ccnc(C(=O)N[C@@H](C)C(=O)O[C@@H](C)[C@@H](OC)c2ccccc2)c1OC(C)=O` [Cmpd 885], the “PUCCRT 1DP disease control rating, LV activity at 125.1 g/H” value in assay [1] (setting [6]) was “D”. The “PUCCRT 3DC disease control rating, LV activity at 125.1 g/H” value in assay [1] (setting [7]) is recorded as “A (> 80)”. Moreover, the “SEPTTR 1DP disease control rating, LV activity at 125.1 g/H” value in assay [2] (setting [6]) is given as “D”. For the same compound, the “SEPTTR 3DC disease control rating, LV activity at 125.1 g/H” value in assay [2] (setting [7]) was “B (≤ 80)”.
